Results from patent US10227358B2, “Hydroxyester derivatives, a process for their preparation and pharmaceutical compositions containing them” (LES LABORATOIRES SERVIER, priority 2015, dated 2019).

Columns and labels:
[1] = test system: H929 multiple myeloma tumour line; experiment: In vitro cytotoxicity (MTT, Microculture Tetrazolium Assay); assay type: cell-based; conditions: Homo sapiens, NCI-H929; H929 cells, 48 hours exposure, cell viability
Protocol: The cytotoxicity studies were carried out on the H929 multiple myeloma tumour line.
The cells are distributed onto microplates and exposed to the test compounds for 48 hours.
The cell viability is then quantified by a colorimetric assay, the Microculture Tetrazolium Assay (Cancer Res., 1987, 47, 939-942).

[2] = target: Mcl-1 protein (UniProtKB Q07820) (Homo sapiens, UniProt Q07820); experiment: Inhibition of Mcl-1 by the fluorescence polarisation technique; assay type: binding; conditions: fluorescein labelled ligand 1 nM, Mcl-1 protein 5 nM, ~2 hours at room temperature; read-out: IC50 (μM) Mcl-1 FP
Protocol: The relative binding potency of each compound was determined via Fluorescence Polarisation (FP). The method utilised a Fluorescein labelled ligand (Fluorescein-βAla-Ahx-A-REIGAQLRRMADDLNAQY-OH; mw 2,765) which binds to the Mcl-1 protein (such that Mcl-1 corresponds to the UniProtKB® primary accession number: Q07820) leading to an increased anisotropy measured in milli-polarisation (mP) units using a reader. The addition of a compound which binds competitively to the same site as the ligand will result in a greater proportion of unbound ligand in the system indicated by a decrease in mP units.
An 11 point serial dilution of each compound was prepared in DMSO and 2 μl transferred into flat bottomed, low binding, 384-well plate (final DMSO concentration 5%). 38 μl of buffer (10 mM 4-(2-hydroxyethyl)-1-piperazineethanesulfonic acid [HEPES], 150 mM NaCl, 0.05% Tween 20, pH 7.4), containing the Fluorescein labelled ligand (final concentration 1 nM) and Mcl-1 protein (final concentration 5 nM) was then added.
Assay plates were incubated ˜2 hours at room temperature before FP was measured on a […] Synergy2 reader (Ex. 528 nm, Em. 640 nm, Cut off 510 nm) and mP units calculated. The binding of increasing doses of test compound was expressed as a percentage reduction in mP compared to a window established between ‘5% DMSO only’ and ‘100% inhibition’ controls. 11-point dose response curves were plotted with XL-Fit software using a 4-Parameter Logistic Model (Sigmoidal Dose-Response Model) and the inhibitory concentrations that gave a 50% reduction in mP (IC50) were determined.

Mcl-1 protein, sequence (Q07820 whole entry): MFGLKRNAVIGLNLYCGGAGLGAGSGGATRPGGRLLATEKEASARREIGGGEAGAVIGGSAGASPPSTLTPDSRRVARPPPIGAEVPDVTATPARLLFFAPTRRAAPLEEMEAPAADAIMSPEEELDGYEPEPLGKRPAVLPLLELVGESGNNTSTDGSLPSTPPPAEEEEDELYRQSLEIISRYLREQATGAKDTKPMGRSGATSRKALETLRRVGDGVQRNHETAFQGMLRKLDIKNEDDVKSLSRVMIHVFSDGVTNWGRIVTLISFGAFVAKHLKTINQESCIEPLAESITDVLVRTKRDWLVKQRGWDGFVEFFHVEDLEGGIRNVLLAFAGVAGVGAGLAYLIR

| Structure (SMILES) | IC50 [2] | IC50 [1] |
| --- | --- | --- |
| COCCNC(=O)OC(C)OC(=O)C(Cc1ccccc1OCc1ccnc(-c2ccccc2OC)n1)Oc1ncnc2sc(-c3ccc(F)cc3)c(-c3ccc(OCCN4CCN(C)CC4)c(Cl)c3C)c12 [Example 10, 1-{[(2-methoxyethyl)carbamoyl]oxy}ethyl (2R)-2-{[(5Sa)-5-{3-chloro-2-methyl-4-[2-(4-methylpiperazin-1-yl)ethoxy]phenyl}-6-(4-fluorophenyl)thieno[2,3-d]pyrimidin-4-yl]oxy}-3-(2-{[2-(2-methoxyphenyl)pyrimidin-4-yl]methoxy}phenyl) propanoate] | 0.147 µM |  |
| COC(=O)CN(C)C(=O)OC(C)OC(=O)C(Cc1ccccc1OCc1ccnc(-c2ccccc2OC)n1)Oc1ncnc2sc(-c3ccc(F)cc3)c(-c3ccc(OCCN4CCN(C)CC4)c(Cl)c3C)c12 [Example 12, 1-{[(2-methoxy-2-oxoethyl)(methyl)carbamoyl]oxy}ethyl (2R)-2-{[(5Sa)-5-{3-chloro-2-methyl-4-[2-(4-methylpiperazin-1-yl)ethoxy]phenyl}-6-(4-fluorophenyl)thieno[2,3-d]pyrimidin-4-yl]oxy}-3-(2-{[2-(2-methoxyphenyl)pyrimidin-4-yl]methoxy}phenyl)propanoate] | 0.318 µM |  |
| COc1ccccc1-c1nccc(COc2ccccc2CC(Oc2ncnc3sc(-c4ccc(F)cc4)c(-c4ccc(OCCN5CCN(C)CC5)c(Cl)c4C)c23)C(=O)OC(C)OC(=O)OC(C)C)n1 [Example 3, 1-{[(propan-2-yloxy)carbonyl]oxy}ethyl (2R)-2-{[(5Sa)-5-{3-chloro-2-methyl-4-[2-(4-methylpiperazin-1-yl)ethoxy]phenyl}-6-(4-fluorophenyl)thieno[2,3-d]pyrimidin-4-yl]oxy}-3-(2-{[2-(2-methoxyphenyl)pyrimidin-4-yl]methoxy}phenyl)propanoate] | 0.292 µM |  |
| COCCN(CCOC)C(=O)OC(C)OC(=O)C(Cc1ccccc1OCc1ccnc(-c2ccccc2OC)n1)Oc1ncnc2sc(-c3ccc(F)cc3)c(-c3ccc(OCCN4CCN(C)CC4)c(Cl)c3C)c12 [Example 11, 1-{[bis(2-methoxyethyl)carbamoyl]oxy}ethyl (2R)-2-{[(5Sa)-5-{3-chloro-2-methyl-4-[2-(4-methylpiperazin-1-yl)ethoxy]phenyl}-6-(4-fluorophenyl)thieno[2,3-d]pyrimidin-4-yl]oxy}-3-(2-{[2-(2-methoxyphenyl)pyrimidin-4-yl]methoxy}phenyl)propanoate] | 0.551 µM |  |
| COc1ccccc1-c1nccc(COc2ccccc2CC(Oc2ncnc3sc(-c4ccc(F)cc4)c(-c4ccc(OCCN5CCN(C)CC5)c(Cl)c4C)c23)C(=O)OC(C)OC(=O)N(C)C)n1 [Example 7, 1-[(dimethylcarbamoyl)oxy]ethyl (2R)-2-{[(5Sa)-5-{3-chloro-2-methyl-4-[2-(4-methylpiperazin-1-yl)ethoxy]phenyl}-6-(4-fluorophenyl)thieno[2,3-d]pyrimidin-4-yl]oxy}-3-(2-{[2-(2-methoxyphenyl)pyrimidin-4-yl]methoxy}phenyl)propanoate] | 0.438 µM |  |
| CCN(CC)C(=O)OC(C)OC(=O)C(Cc1ccccc1OCc1ccnc(-c2ccccc2OC)n1)Oc1ncnc2sc(-c3ccc(F)cc3)c(-c3ccc(OCCN4CCN(C)CC4)c(Cl)c3C)c12 [Example 8, 1-[(diethylcarbamoyl)oxy]ethyl (2R)-2-{[(5Sa)-5-{3-chloro-2-methyl-4-[2-(4-methylpiperazin-1-yl)ethoxy]phenyl}-6-(4-fluorophenyl)thieno[2,3-d]pyrimidin-4-yl]oxy}-3-(2-{[2-(2-methoxyphenyl)pyrimidin-4-yl]methoxy}phenyl)propanoate] | 1.41 µM |  |

Now from value to compound, other results behind:

| IC50 [2] | Structure (SMILES) | IC50 [1] |
| --- | --- | --- |
| 0.453 µM | CCOC(=O)OC(C)OC(=O)[C@@H](Cc1ccccc1OCc1ccnc(-c2ccccc2OC)n1)Oc1ncnc2sc(-c3ccc(F)cc3)c(-c3c(C)c(Cl)c(OCCN4CCN(C)CC4)c(Cl)c3C)c12 (stereo partly drawn) [Example 15, 1-[(ethoxycarbonyl)oxy]ethyl (2R)-2-{[5-{3,5-dichloro-2,6-dimethyl-4-[2-(4-methylpiperazin-1-yl)ethoxy]phenyl}-6-(4-fluorophenyl)thieno[2,3-d]pyrimidin-4-yl]oxy}-3-(2-{[2-(2-methoxyphenyl)pyrimidin-4-yl]methoxy}phenyl)propanoate] | 0.068 µM |
| 0.00181 µM | COc1ccccc1-c1nccc(COc2ccccc2C[C@@H](Oc2ncnc3sc(-c4ccc(F)cc4)c(-c4c(C)c(Cl)c(OCCN5CCN(C)CC5)c(Cl)c4C)c23)C(=O)O)n1 [Preparation 13, (2R)-2-{[5-{3,5-dichloro-2,6-dimethyl-4-[2-(4-methylpiperazin-1-yl)ethoxy]phenyl}-6-(4-fluorophenyl)thieno[2,3-d]pyrimidin-4-yl]oxy}-3-(2-{[2-(2-methoxyphenyl)pyrimidin-4-yl]methoxy}phenyl)propanoic Acid] | 0.025 µM |
| 1.54 µM | COc1ccccc1-c1nccc(COc2ccccc2C[C@@H](Oc2ncnc3sc(-c4ccc(F)cc4)c(-c4c(C)c(Cl)c(OCCN5CCN(C)CC5)c(Cl)c4C)c23)C(=O)OC(C)OC(=O)N(C)C)n1 (stereo partly drawn) [Example 17, 1-[(dimethylcarbamoyl)oxy]ethyl (2R)-2-{[5-{3,5-dichloro-2,6-dimethyl-4-[2-(4-methylpiperazin-1-yl)ethoxy]phenyl}-6-(4-fluorophenyl)thieno[2,3-d]pyrimidin-4-yl]oxy}-3-(2-{[2-(2-methoxyphenyl)pyrimidin-4-yl]methoxy}phenyl)propanoate] | 0.702 µM |
